In PMC7865305, “Pseudopeptide Amyloid Aggregation Inhibitors: In Silico, Single Molecule and Cell Viability Studies” (International Journal of Molecular Sciences, 2021):
Square brackets hold non-standard residues; d marks the D form. Peptide text beside a SMILES is read from it. * marks the point of attachment. NMeF = CN[C@@H](Cc1ccccc1)C(=O)O; Myristoyl = CCCCCCCCCCCCCC(=O)*; NMeL = CN[C@@H](CC(C)C)C(=O)O; Orn = NCCC[C@H](N)C(=O)O; Dab = NCC[C@H](N)C(=O)O; βAla = NCCC(=O)O

Legend:
HT22 cells [1] = experiment: SG inhibitor toxicity, MTT assay; type: cell-based, mouse; conditions: 24 h; for HT22 cell viability, inhibitor alone: HT22 cells, 2.5, 5.0 and 10.0 µM, MTT, n = 4, vs control, one-way ANOVA with Dunnett
Description: (§1) The MTT assay was used to evaluate the viability of HT22 cells exposed to inhibitor or mixtures of inhibitor with full length Aβ(1–42). HT22 cells were plated into 96-well cell culture plates at a cell density of 100,000 cells/mL in full growth media (DMEM/F12, with 10% FBS, 1% Pen/Strep) at 37°C, 5% CO2, until 80% confluence (20–22 h). Full growth media was exchanged for treatment media (containing Aβ or Aβ with SG inhibitor). After treatment, cells are then returned to incubator for 24 h. The media was then exchanged for phenol red-free DMEM/F12 containing 0.5 mg/mL MTT. Cells were returned to the incubator to metabolize the MTT for 3.5 h, after which, cells were solubilized in isopropanol, with 10% Triton X-100 and 0.1 M HCl. After solubilization, absorbance from the 96-well plates was read in Molecular Dynamics™ plate reader at 570 nm and 690 nm. The signal at 690 nm and media control was subtracted from the 570 nm reading prior to analysis. HT22 cells were a generous gift from Dr. Robert Cumming, PhD, University of Western Ontario.
Inhibitor toxicity to HT22 cells was assessed by treating cells with inhibitor (SGA1, Myr-SGA1, SGA3, Myr-SGA3 or SGC1) at concentrations of 2.5, 5.0 and 10.0 µM for 24 h in triplicates, for n = 4 repeats. One-way ANOVA with Dunnett’s multiple comparisons test was performed to establish significance between inhibitor groups and vehicle-treated control, threshold for significance: α = 0.05. To assess SG inhibitor neuroprotection against Aβ(1–42) oligomers, Aβ(1–42) alone or Aβ(1–42) mixed with each inhibitor at the ratios described above were applied to cells in quadruplicates for n = 3 repeats. One-way ANOVA with Dunnett’s multiple comparisons was performed to establish significance between Aβ-SG inhibitor mixture and Aβ-treated control; threshold for significance: α = 0.05.

HT22 cells [2] = type: cell-based, mouse; conditions: MTT; for HT22 cell viability with Aβ(1–42) and myristoylated inhibitor: 5 µM Aβ(1–42) with Myr-SG inhibitor, 24 h, Figure 7B, n = 3
Description: as §1
Aβ(1–42) oligomers were prepared following protocols adapted from Stine et al.. Briefly, Aβ(1–42) was dissolved in HFIP to 1 mg/mL solution and aliquoted into microcentrifuge tubes, and allowed to evaporate under desiccant for 24 h, leaving behind a thin film of Aβ(1–42) monomers, which was stored at […] under desiccant. Immediately prior to use, Aβ(1–42) monomers were suspended in dimethyl sulfoxide (DMSO) at a concentration of 5 mM, vortexed for 30 s, pulse centrifuged for 30 s and then sonicated for 10 min at room temperature. The 5 mM Aβ(1–42) monomer solution prepared in DMSO was then diluted to 100 µM in cold DMEM/F12 media, then further diluted to 5 µM in fresh DMEM/F12 or DMEM/F12 containing SG inhibitor at various concentrations corresponding to a final ratio of 5:1, 2:1, 1:1 and 1:2 Aβ to SG. […]
Inhibitor toxicity to HT22 cells was assessed by treating cells with inhibitor (SGA1, Myr-SGA1, SGA3, Myr-SGA3 or SGC1) at concentrations of 2.5, 5.0 and 10.0 µM for 24 h in triplicates, for n = 4 repeats. […]

[3] = tested on: Aβ(1–42)-Aβ(1–42) dimerization; set-up: method as in 2 sources, ref [21] = [21]; PMID 24321883; doi:10.1016/j.bios.2013.10.060; 21. Hane F.T. Lee B.Y. Petoyan A. Rauk A. Leonenko Z. Testing synthetic amyloid-β aggregation inhibitor using single molecule atomic force spectroscopy Biosens. Bioelectron. 2014 54 492 498 10.1016/j. ||| ref [30] = [30]; PMID 28844735; doi:10.1016/j.bbapap.2017.07.022; 30. Robinson M. Mehrazma B. Opare S.K.A. Petoyan A. Lou J. Hane F.T. Rauk A. Leonenko Z. Pseudo-peptide Amyloid-β Blocking Inhibitors: Molecular Dynamics and Single Molecule Force Spectroscopy Study B; conditions: cited from earlier work; for Shift of Aβ binding probability across unbinding force distribution / Binding probability of Aβ: SMFS, ref [30]; for Binding probability of Aβ: no significant difference between inhibitors
Aβ(1–40) = conditions: ThT fluorescence, 25 μM Aβ(1–40), 37 °C, 5 to 7 days; ref [33]; cited from earlier work
Description: (§2) Experimental validation of the effect of SGA1 on amyloid aggregation and structure was performed previously by several methods: including ThT fluorescence, circular dichroism (CD), Western blot and AFM imaging. The influence of SGA1 on Aβ(1–40) and Aβ(1–42) aggregation by ThT fluorescence assay was performed at a concentration of 25 μM Aβ(1–40) and Aβ(1–42) at 37 °C for 5 to 7 days, across a broad range of SG inhibitor concentration to determine the IC50 inhibitory ligand:Aβ ratio [33]. For SGA1, the IC50 ligand:Aβ(1–40) ratio occurred at 0.2, while the control, N-methylated KLVFF peptide (A ...

Aβ(1–42) [4] = conditions: ThT fluorescence, 25 μM Aβ(1–42), 37 °C, 5 to 7 days; ref [33]; cited from earlier work
Description: as §2, with “[33].” for “[33]. For SGA1, the IC50 ligand:Aβ(1–40) ratio occurred at 0.2, while the control, N-methylated KLVFF peptide (A ...”

Aβ(1–42) [5] = conditions: AFM, 110 μM Aβ(1–42), 1:1 ratio, 1, 6 and 24 h on mica, vs Aβ-only control; ref [21]; cited from earlier work
Description: In Hane et al., solutions of Aβ(1–42) (prepared by the Fezoui method) with and without SGA1 were deposited onto freshly cleaved mica at 1:1 ratio with a final concetration of 110 μM Aβ(1–42), and then incubated for 1, 6 and 24 h, before being washed, dried and than imaged by AFM (Figure 4, adapted with permission).

| Compound | IC50 (HT22 cells [1]) [µM] | HT22 cell viability, inhibitor alone (HT22 cells [1]) | HT22 cell viability with Aβ(1–42) and myristoylated inhibitor (HT22 cells [2]) | Shift of Aβ binding probability across unbinding force distribution [3] | Binding probability of Aβ [3] | IC50 ligand:Aβ(1–40) ratio (Aβ(1–40)) | IC50 inhibitory ligand/Aβ1–42 ratio (Aβ(1–42) [4]) | Number of Aβ binding events ([3]; SMFS proof-of-concept study, ref [21]) | Fibril length of Aβ(1–42) aggregates (Aβ(1–42) [5]) | Effect on Aβ(1–42) toxicity (HT22 cells [2]; 5 µM Aβ(1–42), Aβ/SG 5:1, 2:1, 1:1, 1:2, 24 h, n = 3, vs Aβ-treated group) |
| --- | --- | --- | --- | --- | --- | --- | --- | --- | --- | --- |
| CCCCCCCCCCCCCC(=O)N[C@@H](CCN)C(=O)N[C@@H](CCCN)C(=O)N(C)[C@@H](CC(C)C)C(=O)N[C@@H](Cc1ccccc1)C(=O)N(C)[C@@H](Cc1ccccc1)C(=O)N[C@@H](CC(C)C)C(=O)N1CCC[C@H]1C(=O)NCCC(=O)O [Myr-SGA1] (Myristoyl-[Dab][Orn][NMeL]F[NMeF]LP[βAla]-OH; N-terminus and C-terminus assumed) | ~7.5 | significant reductions in HT22 cell viability at 5 and 10 µM | below 30% | decreased the binding probability at higher force | reduced the binding probability of Aβ | – | – | – | – | – |
| CCCCCCCCCCCCCC(=O)N[C@@H](CCN)C(=O)N[C@@H](CCCN)C(=O)N(C)[C@@H](CC(C)C)C(=O)N[C@@H](Cc1ccccc1)C(=O)N(C)[C@@H](Cc1ccccc1)C(=O)N[C@@H](CC(C)C)C(=O)N[C@@H](C)C(=O)N[C@@H](CCC(=O)O)C(N)=O [Myr-SGA3] (Myristoyl-[Dab][Orn][NMeL]F[NMeF]LAE-NH2; C-terminus assumed) | ~7.5 | significant reductions in HT22 cell viability at 5 and 10 µM | below 30% | – | – | – | – | – | – | – |
| CC(=O)N[C@@H](CCN)C(=O)N[C@@H](CCCN)C(=O)N(C)[C@@H](CC(C)C)C(=O)N[C@@H](Cc1ccccc1)C(=O)N(C)[C@@H](Cc1ccccc1)C(=O)N[C@@H](CC(C)C)C(=O)N1CCC[C@H]1C(=O)NCCC(=O)O [SGA1] (Ac-[Dab][Orn][NMeL]F[NMeF]LP[βAla]-OH; N-terminus and C-terminus assumed) | – | no significant reduction in cell viability was observed | – | – | – | 0.2 | 0.5 | decreases the number Aβ binding events in a concentration dependent manner | greatly reduced | – |
| CC(=O)N[C@@H](CCN)C(=O)N[C@@H](CCCN)C(=O)N(C)[C@@H](CC(C)C)C(=O)N[C@@H](Cc1ccccc1)C(=O)N(C)[C@@H](Cc1ccccc1)C(=O)N[C@@H](CC(C)C)C(=O)N[C@@H](C)C(=O)N[C@@H](CCC(=O)O)C(N)=O [SGA3] (Ac-[Dab][Orn][NMeL]F[NMeF]LAE-NH2; N-terminus and C-terminus assumed) | – | no significant reduction in cell viability was observed | – | more uniformly reduced binding probability across the unbinding force distribution | reduced the binding probability of Aβ | – | – | – | – | – |
| Glu-Ala-(Me)Phe-Phe-(Me)Phe-Leu-Orn-Daba [SGC1] | – | – | – | increased the binding probability at higher force | reduced the binding probability of Aβ | – | – | – | – | no statistically significant effect |
